Assay results reported in patent US6737383B1, “Herbicidal oxadiazolidines” (priority 1999, dated 2004).

Tests used:
bedstraw = test: Test B pre/postemergence bedstraw; type: in vivo, Galium aparine
Method in brief: (§1)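 Response is a visual 0-to-10 score relative to untreated plants, where 0 means no effect and 10 means complete control, taken twelve to sixteen days after application. Treatments went onto soil at planting and onto foliage of 1- to 4-leaf plants, using a surfactant-containing non-phytotoxic solvent.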

bamyardgrass = test: Test B flood test barnyardgrass; type: in vivo, Echinochloa crus-galli
Method in brief: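 Plants were grown to the 2-leaf stage before treatment with test chemical, then held in a greenhouse for twelve to sixteen days. Injury was visually rated against untreated controls on a 0–10 scale, where 0 is no effect and 10 is complete control.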

Italian ryegrass = test: Test E Italian ryegrass; type: in vivo, Lolium multiflorum; settings: Preemergence
green foxtail = test: Test E green foxtail; type: in vivo, Setaria viridis; settings: Preemergence
winter barley = test: Test E winter barley; type: in vivo, Hordeum vulgare; settings: Preemergence
winter wheat [1] = test: Test E winter wheat; type: in vivo, Triticum aestivum; settings: Preemergence
wild oat [2] = test: Test B pre/postemergence wild oat; type: in vivo, Avena fatua
Method in brief: as §1

surinam grass = test: Test B pre/postemergence surinam grass; type: in vivo, Brachiaria decumbens
Method in brief: as §1

blackgrass = test: Test E blackgrass; type: in vivo, Alopecurus myosuroides; settings: Preemergence
wild oat [3] = test: Test E wild oat; type: in vivo, Avena fatua; settings: Preemergence
winter wheat [4] = test: Test E winter wheat; type: in vivo, Triticum aestivum; settings: Postemergence
Method in brief: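 Plants were grown under normal greenhouse practice; for postemergence, in sandy loam soil mixed 60:40 with potting mix, treated at the 1- to 4-leaf stage. The compound was in a non-phytotoxic solvent carrying a surfactant. After roughly 21 to 28 days plants were scored visually against untreated plants.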

[5] = Postemergence, Rate 62 g/ha, scale 0 to 10, 0 is no effect, 10 is complete control
[6] = Postemergence, Rate 250 g/ha, scale 0 to 10, 0 no effect, 10 complete control
[7] = Preemergence, Rate 62 g/ha, scale 0 to 10, 0 is no effect, 10 is complete control
[8] = Preemergence, Rate 125 g/ha, scale 0 to 10 (0 no effect, 10 complete control)
[9] = Preemergence, Rate 250 g/ha, scale of 0 to 10 where 0 is no effect and 10 is complete control
[10] = Preemergence, Rate 500 g/ha, scale 0 (no effect) to 10 (complete control)
[11] = Rate 125 g/ha, Postemergence, scale 0 to 10, 0 no effect, 10 complete control
[12] = Rate 500 g/ha, Postemergence, 0 to 10 scale (0 no effect, 10 complete control)
[13] = Rate 125 g/ha, Postemergence section (flood test species), scale 0 to 10, 0 no effect, 10 complete control
[14] = flood test, listed under Postemergence, Rate 250 g/ha, scale 0 to 10, 0 no effect, 10 complete control
[15] = Rate 125 g/ha, 0 to 100 scale (0 no effect, 100 complete control)
[16] = Rate 500 g/ha, 0 to 100 scale where 0 is no effect and 100 is complete control
[17] = Rate 250 g/ha, 0 to 100 scale (0 no effect, 100 complete control)
[18] = Rate 500 g/ha, 0 to 100 scale, 0 no effect, 100 complete control
[19] = Preemergence, Rate 62 g/ha, scale 0 to 10 (0 no effect, 10 complete control)
[20] = Rate 500 g/ha, Postemergence, scale 0 to 10, 0 no effect, 10 complete control
[21] = Rate 1000 g/ha, 0 to 100 scale where 0 is no effect and 100 is complete control

CC(C)N(C(=O)n1oc(=O)n(-c2ccccc2)c1=O)c1ccc(F)cc1 [Compound 38]
Bedstraw plant response rating (bedstraw; [5]): 0 | Bedstraw plant response rating (bedstraw; [6]): 0 | Plant response rating, Bedstraw (bedstraw; [7]): 0 | Plant response rating, Bedstraw (bedstraw; [8]): 0 | Plant response rating, Bedstraw (bedstraw; [9]): 0 | Bedstraw plant response rating (bedstraw; [10]): 0 | Bedstraw plant response rating (bedstraw; [11]): 0 | Bedstraw plant response rating (bedstraw; [12]): 5 | Barnyardgrass plant response rating (bamyardgrass; [5]): 0 | Barnyardgrass plant response rating (bamyardgrass; [13]): 0 | Barnyardgrass plant response rating (bamyardgrass; Rate 500 g/ha, Postemergence section of Table B, 0 to 10 scale (0 no effect, 10 complete control)): 0 | Barnyardgrass plant response rating (bamyardgrass; [14]): 0 | Plant response rating, I. Ryegrass (Italian ryegrass; [15]): 0 | Plant response rating, I. Ryegrass (Italian ryegrass; Rate 250 g/ha, 0 to 100 scale): 20 | Plant response rating, I. Ryegrass (Italian ryegrass; [16]): 80 | Plant response rating, Green foxtail (green foxtail; [15]): 80 | Plant response rating, Green foxtail (green foxtail; Rate 250 g/ha, 0 to 100 scale): 90 | Plant response rating, Green foxtail (green foxtail; [16]): 100 | Plant response rating, Barley (winter) (winter barley; [15]): 0 | Plant response rating, Barley (winter) (winter barley; Rate 250 g/ha, 0 to 100 scale): 0 | Plant response rating, Barley (winter) (winter barley; [16]): 0 | Plant response rating, Wheat (winter) (winter wheat [1]; [15]): 10 | Plant response rating, Wheat (winter) (winter wheat [1]; Rate 250 g/ha, 0 to 100 scale): 0 | Plant response rating, Wheat (winter) (winter wheat [1]; [16]): 10 | Wild oats plant response rating (wild oat [2]; [5]): 0 | Wild oats plant response rating (wild oat [2]; [6]): 0 | Plant response rating, Wild oats (wild oat [2]; [8]): 6 | Plant response rating, Wild oats (wild oat [2]; [9]): 6 | Wild oats plant response rating (wild oat [2]; [10]): 8 | Wild oats plant response rating (wild oat [2]; [11]): 0 | B. signalgrass plant response rating (surinam grass; [5]): 0 | B. signalgrass plant response rating (surinam grass; [6]): 0 | Plant response rating, B. signalgrass (surinam grass; [7]): 3 | Plant response rating, B. signalgrass (surinam grass; [8]): 4 | Plant response rating, B. signalgrass (surinam grass; [9]): 8 | B. signalgrass plant response rating (surinam grass; [10]): 8 | B. signalgrass plant response rating (surinam grass; [11]): 0 | B. signalgrass plant response rating (surinam grass; [12]): 0 | Plant response rating, Blackgrass (blackgrass; [15]): 25 | Plant response rating, Blackgrass (blackgrass; Rate 250 g/ha, 0 to 100 scale): 45 | Plant response rating, Blackgrass (blackgrass; [16]): 35 | Plant response rating, Wild oat (wild oat [3]; [15]): 0 | Plant response rating, Wild oat (wild oat [3]; [16]): 20 | Plant response rating, Wheat (winter) (winter wheat [4]; Rate 125 g/ha, 0 to 100 scale): 10 | Plant response rating, Wheat (winter) (winter wheat [4]; [17]): 10 | Plant response rating, Wheat (winter) (winter wheat [4]; [18]): 10

CC(C)N(C(=O)n1oc(=O)n(Cc2cccs2)c1=O)c1ccc(F)cc1F [Compound 86]
Bedstraw plant response rating (bedstraw; [5]): 2 | Bedstraw plant response rating (bedstraw; [6]): 6 | Bedstraw plant response rating (bedstraw; [19]): 0 | Plant response rating, Bedstraw (bedstraw; [8]): 0 | Plant response rating, Bedstraw (bedstraw; [9]): 0 | Bedstraw plant response rating (bedstraw; [10]): 0 | Bedstraw plant response rating (bedstraw; [11]): 4 | Bedstraw plant response rating (bedstraw; [20]): 8 | Barnyardgrass plant response rating (bamyardgrass; [5]): 0 | Barnyardgrass plant response rating (bamyardgrass; [13]): 0 | Barnyardgrass plant response rating (bamyardgrass; Rate 250 g/ha, headed Pre-emergence (flood test species), scale 0 to 10 (0 no effect, 10 complete control)): 0 | Plant response rating, Barnyardgrass (bamyardgrass; Rate 500 g/ha, headed Pre-emergence (flood test species), scale 0 to 10 (0 no effect, 10 complete control)): 0 | Barnyardgrass plant response rating (bamyardgrass; Rate 500 g/ha, listed under Postemergence (flood test species), scale 0 to 10, 0 no effect, 10 complete control): 0 | Barnyardgrass plant response rating (bamyardgrass; Rate 1000 g/ha, Pre-emergence (as headed), scale 0 to 10): 0 | Barnyardgrass plant response rating (bamyardgrass; Rate 2000 g/ha, Pre-emergence (as headed), scale 0 to 10, 0 no effect, 10 complete control): 0 | Barnyardgrass plant response rating (bamyardgrass; [14]): 0 | Plant response rating, I. Ryegrass (Italian ryegrass; Rate 250 g/ha, 0 to 100 scale): 30 | Plant response rating, I. Ryegrass (Italian ryegrass; [16]): 50 | Plant response rating, I. Ryegrass (Italian ryegrass; [21]): 60 | Plant response rating, Green foxtail (green foxtail; Rate 250 g/ha, 0 to 100 scale): 40 | Plant response rating, Green foxtail (green foxtail; [16]): 55 | Plant response rating, Green foxtail (green foxtail; [21]): 100 | Plant response rating, Barley (winter) (winter barley; Rate 250 g/ha, 0 to 100 scale): 70 | Plant response rating, Barley (winter) (winter barley; [16]): 80 | Plant response rating, Barley (winter) (winter barley; [21]): 70 | Plant response rating, Wheat (winter) (winter wheat [1]; Rate 250 g/ha, 0 to 100 scale): 60 | Plant response rating, Wheat (winter) (winter wheat [1]; [16]): 40 | Plant response rating, Wheat (winter) (winter wheat [1]; [21]): 65 | Wild oats plant response rating (wild oat [2]; [5]): 0 | Wild oats plant response rating (wild oat [2]; [6]): 0 | Wild oats plant response rating (wild oat [2]; [19]): 0 | Plant response rating, Wild oats (wild oat [2]; [8]): 0 | Plant response rating, Wild oats (wild oat [2]; [9]): 4 | Wild oats plant response rating (wild oat [2]; [10]): 5 | Wild oats plant response rating (wild oat [2]; [11]): 0 | Wild oats plant response rating (wild oat [2]; [20]): 0 | B. signalgrass plant response rating (surinam grass; [5]): 0 | B. signalgrass plant response rating (surinam grass; [6]): 0 | B. signalgrass plant response rating (surinam grass; [19]): 0 | Plant response rating, B. signalgrass (surinam grass; [8]): 2 | Plant response rating, B. signalgrass (surinam grass; [9]): 4 | B. signalgrass plant response rating (surinam grass; [10]): 7 | B. signalgrass plant response rating (surinam grass; [11]): 0 | B. signalgrass plant response rating (surinam grass; Rate 500 g/ha, Postemergence, scale of 0 to 10 where 0 is no effect and 10 is complete control): 0 | Plant response rating, Blackgrass (blackgrass; Rate 250 g/ha, 0 to 100 scale): 60 | Plant response rating, Blackgrass (blackgrass; [16]): 55 | Plant response rating, Blackgrass (blackgrass; [21]): 65 | Plant response rating, Wild oat (wild oat [3]; [16]): 60 | Plant response rating, Wild oat (wild oat [3]; [21]): 70 | Plant response rating, Wheat (winter) (winter wheat [4]; [17]): 55 | Plant response rating, Wheat (winter) (winter wheat [4]; Rate 1000 g/ha, 0 to 100 scale, 0 is no effect and 100 is complete control): 60 | Plant response rating, Wheat (winter) (winter wheat [4]; [18]): 70
